Key:
[1] = biological target: human recombinant serotonin (5-Hydroxytryptamine) 5-HT7 receptor (Homo sapiens, UniProt P34969); assay: Serotonin 5-HT7 radioligand binding ([3H]LSD); details: compound at 0.1 μM; read-out: Inhibition of ligand binding, Serotonin 5-HT7 (percent inhibition of specific binding)
From the text: Receptor proteins were filtered and washed, the filters were then counted to determine [^3H]LSD specifically bound.

[2] = biological target: T1, human recombinant serotonin (5-Hydroxytryptamine) 5-HT6 receptor (Homo sapiens, UniProt P50406); assay: Serotonin 5-HT6 radioligand binding ([3H]LSD); details: compound at 0.1 μM; read-out: Inhibition of ligand binding, Serotonin 5-HT6 (percent inhibition of specific binding)
T1 construct: expressed in transfected cells; host or cells: human HeLa cells
Method: Compounds of the invention were incubated with 1.5 nM [3H]Lysergic acid diethylamide (LSD) for 120 min. at 37° C. […] Receptor proteins were filtered and washed, the filters were then counted to determine [3H]LSD specifically bound. Compounds were screened at 1 μM or lower, using 1% DMSO as vehicle. Biochemical assay results are presented as the percent inhibition of specific binding in Table 10.

[3] = biological target: T2, human recombinant serotonin (5-Hydroxytryptamine) 5-HT2A receptor (Homo sapiens, UniProt P28223); assay: Serotonin 5-HT2A radioligand binding ([3H]Ketanserin); details: read-out: Inhibition of ligand binding, Serotonin 5-HT2A (percent inhibition of specific binding), compound at 0.1 μM
T2 construct: expressed in transfected cells; host or cells: Chinese hamster ovary (CHO-K1) cells
Method: Compounds of the invention were incubated with 0.5 nM [^3H]Ketanserin for 60 min. at 25° C. Non-specific binding was estimated in the presence of 1 μM Mianserin. Receptor proteins were filtered and washed, the filters were then counted to determine [^3H]Ketanserin specifically bound.

[4] = biological target: T3, human recombinant serotonin (5-Hydroxytryptamine) 5-HT2C receptor (Homo sapiens, UniProt P28335); assay: Serotonin 5-HT2C radioligand binding ([3H]Mesulergine); details: compound at 0.1 μM; read-out: Inhibition of ligand binding, Serotonin 5-HT2C (percent inhibition of specific binding)
T3 construct: expressed in transfected cells; host or cells: Chinese hamster ovary (CHO-K1) cells
T3 sequence (P28335 33-458): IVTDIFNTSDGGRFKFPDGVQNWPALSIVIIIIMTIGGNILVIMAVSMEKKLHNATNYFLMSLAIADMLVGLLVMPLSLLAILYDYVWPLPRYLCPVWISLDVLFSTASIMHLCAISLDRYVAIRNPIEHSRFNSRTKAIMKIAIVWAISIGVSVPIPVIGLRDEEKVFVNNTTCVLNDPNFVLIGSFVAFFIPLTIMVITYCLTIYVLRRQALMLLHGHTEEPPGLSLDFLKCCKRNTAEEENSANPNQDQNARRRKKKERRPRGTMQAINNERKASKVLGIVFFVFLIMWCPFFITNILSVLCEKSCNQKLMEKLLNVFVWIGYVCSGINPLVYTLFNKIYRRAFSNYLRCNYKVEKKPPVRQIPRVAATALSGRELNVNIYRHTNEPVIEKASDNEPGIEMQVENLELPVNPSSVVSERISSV
Method: Compounds of the invention were incubated with 1 nM [^3H]Mesulergine for 60 min. at 25° C. Non-specific binding was estimated in the presence of 1 μM Mianserin. Receptor proteins were filtered and washed, the filters were then counted to determine [^3H]Mesulergine specifically bound. Compounds were screened at 1 μM or lower, using 1% DMSO as vehicle. Biochemical assay results are presented as the percent inhibition of specific binding in Table 10.

histamine receptor H1 = histamine receptor H1 (Homo sapiens, UniProt P35367); assay: Histamine H1 radioligand binding ([3H]Pyrilamine); details: read-out: Histamine Binding (1 μM) H1, percent inhibition of specific binding, 1 μM
Procedure, shortened: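 Values are percent inhibition of specific [3H]pyrilamine (1.2 nM) binding with compounds at ≤1 μM (1% DMSO vehicle); 180 min incubation at 25 °C, pH 7.4 Tris buffer, on CHO-expressed human H1 receptor; 1 μM pyrilamine defined nonspecific binding, bound ligand counted after filtration.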

[5] = biological target: human dopamine D2L receptor (Homo sapiens, UniProt P14416); assay: Dopamine D2L radioligand binding ([3H]Spiperone); details: percent inhibition of specific binding; compound at 1 μM; read-out: Inhibition of ligand binding, Dopamine D2L
From the text: Non-specific binding was estimated in the presence of […] Haloperidol. Receptor proteins were filtered and washed, the filters were then counted to determine [^3H]Spiperone specifically bound. […] Biochemical assay results are presented as the percent inhibition of specific binding in Table 9.

T1 sequence (P50406 whole entry): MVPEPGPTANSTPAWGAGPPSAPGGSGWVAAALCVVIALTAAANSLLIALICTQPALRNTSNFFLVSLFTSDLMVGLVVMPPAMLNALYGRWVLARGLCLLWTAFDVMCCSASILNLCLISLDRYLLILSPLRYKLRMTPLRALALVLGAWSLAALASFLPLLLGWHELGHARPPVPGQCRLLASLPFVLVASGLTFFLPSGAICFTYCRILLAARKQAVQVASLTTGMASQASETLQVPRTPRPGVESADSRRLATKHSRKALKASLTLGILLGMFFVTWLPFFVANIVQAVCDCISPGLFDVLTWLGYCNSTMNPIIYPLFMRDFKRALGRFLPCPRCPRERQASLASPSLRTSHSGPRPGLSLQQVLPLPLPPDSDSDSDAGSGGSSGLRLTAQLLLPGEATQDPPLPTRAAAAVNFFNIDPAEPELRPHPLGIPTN
T2 sequence (P28223 whole entry): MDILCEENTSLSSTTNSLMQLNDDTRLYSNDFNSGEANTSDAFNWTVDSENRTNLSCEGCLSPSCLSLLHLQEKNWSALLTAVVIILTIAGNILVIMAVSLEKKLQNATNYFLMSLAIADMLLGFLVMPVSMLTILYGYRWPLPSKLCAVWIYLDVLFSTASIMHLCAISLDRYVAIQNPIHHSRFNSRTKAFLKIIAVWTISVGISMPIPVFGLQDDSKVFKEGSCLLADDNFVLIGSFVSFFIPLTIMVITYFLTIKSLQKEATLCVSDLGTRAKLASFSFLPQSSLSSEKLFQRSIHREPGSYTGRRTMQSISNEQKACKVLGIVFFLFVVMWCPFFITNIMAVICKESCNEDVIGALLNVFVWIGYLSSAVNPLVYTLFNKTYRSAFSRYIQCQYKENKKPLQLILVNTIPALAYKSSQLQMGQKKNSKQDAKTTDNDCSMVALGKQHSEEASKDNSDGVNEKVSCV
Chain of human recombinant serotonin (5-Hydroxytryptamine) 5-HT7 receptor (P34969 whole entry): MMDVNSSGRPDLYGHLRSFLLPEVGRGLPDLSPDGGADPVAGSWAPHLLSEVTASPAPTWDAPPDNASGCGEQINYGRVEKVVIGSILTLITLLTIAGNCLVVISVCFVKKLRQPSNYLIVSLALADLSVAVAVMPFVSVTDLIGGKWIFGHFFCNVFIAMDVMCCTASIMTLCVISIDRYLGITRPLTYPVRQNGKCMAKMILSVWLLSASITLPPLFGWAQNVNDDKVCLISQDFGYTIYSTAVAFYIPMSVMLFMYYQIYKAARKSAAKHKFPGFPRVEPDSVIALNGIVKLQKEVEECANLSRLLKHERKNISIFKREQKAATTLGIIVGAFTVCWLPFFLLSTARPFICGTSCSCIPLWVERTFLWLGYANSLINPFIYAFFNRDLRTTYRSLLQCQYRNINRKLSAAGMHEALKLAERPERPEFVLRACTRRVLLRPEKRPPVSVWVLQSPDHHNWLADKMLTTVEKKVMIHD
Chain of histamine receptor H1 (P35367 whole entry): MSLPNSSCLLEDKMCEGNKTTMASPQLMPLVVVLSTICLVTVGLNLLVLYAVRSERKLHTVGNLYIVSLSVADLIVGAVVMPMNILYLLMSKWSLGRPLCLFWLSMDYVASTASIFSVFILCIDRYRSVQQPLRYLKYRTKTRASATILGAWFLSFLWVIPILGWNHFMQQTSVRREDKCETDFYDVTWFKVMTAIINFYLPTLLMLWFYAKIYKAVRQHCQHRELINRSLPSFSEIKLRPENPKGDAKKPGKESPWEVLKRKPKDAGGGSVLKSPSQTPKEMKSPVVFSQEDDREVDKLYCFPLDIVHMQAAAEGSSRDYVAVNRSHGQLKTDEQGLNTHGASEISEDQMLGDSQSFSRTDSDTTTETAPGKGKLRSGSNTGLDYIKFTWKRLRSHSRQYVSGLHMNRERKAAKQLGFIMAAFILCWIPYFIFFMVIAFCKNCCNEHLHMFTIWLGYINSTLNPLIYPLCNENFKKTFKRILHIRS
Chain of human dopamine D2L receptor (P14416 whole entry): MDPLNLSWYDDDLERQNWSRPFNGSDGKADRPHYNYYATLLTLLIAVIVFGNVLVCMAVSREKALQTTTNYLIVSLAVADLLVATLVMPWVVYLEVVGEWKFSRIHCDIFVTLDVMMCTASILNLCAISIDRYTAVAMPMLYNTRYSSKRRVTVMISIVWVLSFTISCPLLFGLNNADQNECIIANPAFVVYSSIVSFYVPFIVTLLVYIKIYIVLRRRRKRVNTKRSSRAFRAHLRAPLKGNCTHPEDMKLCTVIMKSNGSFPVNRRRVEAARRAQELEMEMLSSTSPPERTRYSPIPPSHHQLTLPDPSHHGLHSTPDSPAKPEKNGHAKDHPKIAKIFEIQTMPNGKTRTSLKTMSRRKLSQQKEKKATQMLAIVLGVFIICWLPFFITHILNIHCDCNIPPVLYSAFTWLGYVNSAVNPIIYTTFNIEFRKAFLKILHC

| SMILES | inhibition at 0.1 µM [1] [%] | inhibition at 0.1 µM [2] [%] | inhibition at 0.1 µM [3] [%] | inhibition at 0.1 µM [4] [%] | inhibition at 1 µM (histamine receptor H1) [%] | inhibition at 1 µM [5] [%] |
| --- | --- | --- | --- | --- | --- | --- |
| C/C(=C\n1c2c(c3cc(C(F)(F)F)ccc31)CN(C)CC2)c1ccncc1 [Compound 249, (E)-2-methyl-5-(2-(pyridin-4-yl)prop-1-enyl)-8-(trifluoromethyl)-2,3,4,5-tetrahydro-1H-pyrido[4,3-b]indole] | 70 | 98 | 90 | 60 | 48 | 93 |
| C/C(=C\n1c2c(c3ccc(C(F)(F)F)cc31)CN(C)CC2)c1ccc(C)nc1 [Compound 250, (E)-2-methyl-5-(2-(6-methylpyridin-3-yl)prop-1-enyl)-7-(trifluoromethyl)-2,3,4,5-tetrahydro-1H-pyrido[4,3-b]indole] | 33 | 13 | 36 | 31 | 12 | 18 |
| C/C(=C\n1c2c(c3cc(F)ccc31)CN(C)CC2)c1ccc(C)nc1 [Compound 251, (E)-8-fluoro-2-methyl-5-(2-(6-methylpyridin-3-yl)prop-1-enyl)-2,3,4,5-tetrahydro-1H-pyrido[4,3-b]indole] | 74 | 8 | 85 | 77 | 15 | 25 |
| C/C(=C\n1c2c(c3cccc(Cl)c31)CN(C)CC2)c1ccc(C)nc1 [Compound 252, (E)-6-chloro-2-methyl-5-(2-(6-methylpyridin-3-yl)prop-1-enyl)-2,3,4,5-tetrahydro-1H-pyrido[4,3-b]indole] | 23 | 9 | 67 | 50 | 22 | 13 |
| C/C(=C\n1c2c(c3ccc(Cl)cc31)CN(C)CC2)c1ccc(C)nc1 [Compound 253, (E)-7-chloro-2-methyl-5-(2-(6-methylpyridin-3-yl)prop-1-enyl)-2,3,4,5-tetrahydro-1H-pyrido[4,3-b]indole] | 54 | 9 | 85 | 49 | 20 | 22 |
| C/C(=C\n1c2c(c3ccccc31)CN(C)CC2)c1ccc(C)nc1 [Compound 254, (E)-2-methyl-5-(2-(6-methylpyridin-3-yl)prop-1-enyl)-2,3,4,5-tetrahydro-1H-pyrido[4,3-b]indole] | 63 | 15 | 65 | 52 | 7 | 11 |
| C/C(=C\n1c2c(c3cc(F)c(F)cc31)CN(C)CC2)c1ccc(C)nc1 [Compound 255, (E)-7,8-difluoro-2-methyl-5-(2-(6-methylpyridin-3-yl)prop-1-enyl)-2,3,4,5-tetrahydro-1H-pyrido[4,3-b]indole] | 54 | 4 | 81 | 69 | 11 | 29 |
| C/C(=C/n1c2c(c3cc(Cl)ccc31)CN(C)CC2)c1ccc(Cl)c(Cl)c1 [Compound 256, (Z)-8-chloro-5-(2-(3,4-dichlorophenyl)prop-1-enyl)-2-methyl-2,3,4,5-tetrahydro-1H-pyrido[4,3-b]indole] | 85 | 96 | 100 | 90 | 92 | 34 |
| C/C(=C\n1c2c(c3cc(C)ccc31)CN(C)C(C)C2)c1ccncc1 (stereo not drawn) [Compound 257, (E)-2,3,8-trimethyl-5-(2-(pyridin-4-yl)prop-1-enyl)-2,3,4,5-tetrahydro-1H-pyrido[4,3-b]indole] | 75 | 71 | 94 | 94 | 18 | 72 |
| C/C(=C\n1c2c(c3cc(C)ccc31)CN(C)C(C)C2)c1ccc(F)cc1 (stereo not drawn) [Compound 258, (E)-5-(2-(4-fluorophenyl)prop-1-enyl)-2,3,8-trimethyl-2,3,4,5-tetrahydro-1H-pyrido[4,3-b]indole] | 84 | 81 | 98 | 98 | 59 | 81 |
| C/C(=C\n1c2c(c3cccc(F)c31)CN(C)CC2)c1ccc(C)nc1 [Compound 260, (E)-6-fluoro-2-methyl-5-(2-(6-methylpyridin-3-yl)prop-1-enyl)-2,3,4,5-tetrahydro-1H-pyrido[4,3-b]indole] | 5 | -7 | 34 | 29 | -19 | 9 |
| C/C(=C\n1c2c(c3ccc(F)cc31)CN(C)CC2)c1ccc(C)nc1 [Compound 261, (E)-7-fluoro-2-methyl-5-(2-(6-methylpyridin-3-yl)prop-1-enyl)-2,3,4,5-tetrahydro-1H-pyrido[4,3-b]indole] | 47 | 4 | 74 | 31 | 11 | 28 |
| C/C(=C\n1c2c(c3cc(Cl)ccc31)CN(C)C(C)C2)c1ccc(F)cc1 (stereo not drawn) [Compound 262, (E)-8-chloro-5-(2-(4-fluorophenyl)prop-1-enyl)-2,3-dimethyl-2,3,4,5-tetrahydro-1H-pyrido[4,3-b]indole] | 94 | 99 | 99 | 100 | 66 | 97 |
| C/C(=C\n1c2c(c3cc(OC(F)(F)F)ccc31)CN(C)CC2)c1ccncc1 [Compound 263, (E)-2-methyl-5-(2-(pyridin-4-yl)prop-1-enyl)-8-(trifluoromethoxy)-2,3,4,5-tetrahydro-1H-pyrido[4,3-b]indole] | 15 | 99 | 64 | 18 | 8 | 89 |
| Cc1ccc2c(c1)c1c(n2/C=C(\c2ccncc2)C(C)C)CCN(C)C1 [Compound 264, (Z)-2,8-dimethyl-5-(3-methyl-2-(pyridin-4-yl)but-1-enyl)-2,3,4,5-tetrahydro-1H-pyrido[4,3-b]indole] | 51 | 89 | 99 | 94 | 24 | 49 |
| CC(C)/C(=C/n1c2c(c3cc(Cl)ccc31)CN(C)CC2)c1ccncc1 [Compound 265, (Z)-8-chloro-2-methyl-5-(3-methyl-2-(pyridin-4-yl)but-1-enyl)-2,3,4,5-tetrahydro-1H-pyrido[4,3-b]indole] | 52 | 97 | 96 | 89 | 22 | 73 |
| CCN1CCc2c(c3ccccc3n2/C=C(\C)c2ccncc2)C1 [Compound 266, (E)-2-ethyl-5-(2-(pyridin-4-yl)prop-1-enyl)-2,3,4,5-tetrahydro-1H-pyrido[4,3-b]indole] | 18 | 81 | 67 | 12 | -1 | 94 |

From US8906925B2, “Pyrido[4,3-B]indoles containing rigid moieties” (Medivation Technologies, Inc., priority 2008, dated 2014)
